Results from PMC5371824, “Phosphatidylinositol (4,5)-bisphosphate dynamically regulates the K2P background K^+ channel TASK-2” (Scientific Reports, 2017).
Changes are numbered by the printed parent chain. Entries after “also recorded” stand apart in the source; their conditions may differ. Like-named read-outs stand apart in the source and are kept apart here.

Tests used:
[1] = molecular target: T1, TASK-2 (Mus musculus, UniProt F6V9U5); test: Excised inside-out patch recording from HEK-293 cells over-expressing TASK-2; type: biochemical; details: for Stimulating effect on TASK-2-mediated currents after run-down: diC8 PIP added to inside-out excised patches; for Stimulating effect on TASK-2-mediated currents after run-down / Maximal fold effect on TASK-2 current (normalised to current in absence of PIP) / EC50 / Hill coefficient nH of dose response curve: absence of ATP; for Maximal fold effect on TASK-2 current (normalised to current in absence of PIP) / EC50 / Hill coefficient nH of dose response curve: diC8 PIP; for Maximal fold effect on TASK-2 current (normalised to current in absence of PIP) / EC50: from fits, means ± SEM; for EC50: read-out: K0.5 (EC50) for activation of TASK-2 current; for Effect of readmitted ATP relative to the maximal effect elicited by the PIP: 1 mM ATP added after PIP, inside-out patches, Fig. S3; for Inhibition of TASK-2 activity by polycation PI scavengers: in the presence of intracellular ATP
T1 construct: expressed in transfected cells; host or cells: HEK-293
T1 sequence (F6V9U5 1-502): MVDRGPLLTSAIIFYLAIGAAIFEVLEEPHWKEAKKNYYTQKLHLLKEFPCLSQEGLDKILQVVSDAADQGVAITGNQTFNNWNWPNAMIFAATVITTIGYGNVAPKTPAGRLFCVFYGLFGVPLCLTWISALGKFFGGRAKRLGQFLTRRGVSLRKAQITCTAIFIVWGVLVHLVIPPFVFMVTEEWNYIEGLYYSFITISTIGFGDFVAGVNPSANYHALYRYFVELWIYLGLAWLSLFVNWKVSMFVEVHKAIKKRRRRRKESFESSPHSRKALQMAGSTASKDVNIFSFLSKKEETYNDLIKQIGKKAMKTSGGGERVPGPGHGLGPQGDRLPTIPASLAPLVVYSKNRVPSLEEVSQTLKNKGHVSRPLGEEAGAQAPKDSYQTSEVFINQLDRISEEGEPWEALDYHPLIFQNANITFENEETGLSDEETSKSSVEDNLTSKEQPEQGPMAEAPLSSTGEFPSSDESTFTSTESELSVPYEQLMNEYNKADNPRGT

[2] = molecular target: T1, TASK-2; test: Whole-cell patch-clamp of HEK-293 cells expressing TASK-2; type: cell-based; details: for Inhibition of TASK-2 activity by intracellular neomycin: 1 mM intracellular ATP
Protocol: (§1) Mus musculus TASK-2 (GenBank accession No. AF319542) plasmid was that obtained from mouse kidney. The cDNAs was subcloned into the pCR3.1 vector. Mutations were made by site-directed mutagenesis into the pCR3.1 vector as previously described[69] and confirmed by sequencing. HEK-293 cells were cultured in Dulbecco’s modified Eagle’s medium (DMEM) and F12 Ham’s medium at a 1:1 ratio and supplemented with 10% fetal calf serum at 37 °C in 5% CO2. For electrophysiological experiments, transient transfections were performed by electroporation, using CD8 cotransfection to identify effectively transfected cells. […] Experiments were performed 4–8 h after electroporation. In experiments with the voltage-sensitive phosphatase TASK-2 or its mutants were co-electroporated with a pCR3.1-DrVSP-IRES-CD8 vector.
Transiently transfected HEK-293 cells in 35 mm Petri dishes were transferred to the stage of an inverted microscope for study. There they were continuously superfused with a bathing solution containing (in mM): 67.5 Na2SO4, 4 KCl, 1 K gluconate, 2 CaCl2, 1 MgCl2, 105 sucrose, and 10 Hepes/Tris (pH 7.5) (standard solution). A high K^+ solution was obtained by equimolar replacement of Na^+ by K^+. The pipette solution contained (mM) 8 KCl, 132 potassium gluconate, 1 MgCl2, 10 EGTA, 1 Na3ATP, 0.1 GTP, 10 HEPES/Tris, pH 7.4. Standard whole-cell, patch-clamp recordings were performed as described elsewhere. All our whole-cell experiments keep both intra- and extracellular chloride at 10 mM and although currents were measured at several potentials, data mostly reported are those obtained at 0 mV. Potentials were corrected for liquid junction shifts. Acquisition and analysis was done with Clampfit 9.0 (Axon Instruments, Foster City, CA, USA). Further data analysis was done using the curve fitting features of SigmaPlot v. 12 (Systat Software Inc., San Jose, CA, USA).

[3] = tested on: TASK-2-R438C; test: Excised inside-out patch recording, TASK-2-R438C mutant; type: biochemical, Mus musculus; parameters: key to Neomycin inhibition: ✓ under Neomycin inhibition indicates a significantly lower IC50 for inhibition by neomycin compared to control; — in all cases stands for no significant effect
Protocol: as §1
Recordings in the inside-out isolated patch configuration were performed in the gap-free mode at −60 mV. The inside aspect of the patch was bathed with a solution containing in mM: 10 KCl, 10 Glucose, 1 MgCl2, 10 EGTA, 1 Na3ATP, 0.1 GTP, 6.8 g/100 ml Sucrose, 10 Hepes/Tris, pH 7.4. The pipette contained in mM: 140 KCl, 10 Glucose, 6.8 g/100 ml Sucrose, 10 Hepes/Tris pH 7.4. For isolated patches, borosilicate capillaries (Harvard Apparatus GC150F-10 1.5 ODx0.86 ID) were fire polished to 4–5 MΩ and covered in beeswax. Acquisition was at 10 kHz with filter at 3 kHz (4-pole Bessel) and analysis was done with Clampfit 9.0 (Axon Instruments, Foster City, CA, USA). Traces shown are prints from crude Clampfit screen shots and quantification was done using the average currents were calculated at intervals using Clampfit after baseline adjustment.
Fig. S7. Concentration ependence for the inhibition of TASK-2 mutant R438C by
intracellular neomycin. Recording were obtained from excised inside-out patches of
membrane taken from a HEK-293 cells over-expressing TASK-2-R438C. The patches were
held at -60 mV in the presence of 1 mM intracellular ATP. Neomycin was increased
stepwise from 5 to 500 µM in the solution bathing the intracellular aspect of the membrane. […]

[4] = tested on: Kir4.1/Kir5.1; parameters: method as in PMID 18690035; details: read-out: neomycin IC50; cited from earlier work
[5] = molecular target: T2, TASK-2-K297C (Mus musculus, UniProt F6V9U5, K297C); test: Excised inside-out patch recording, TASK-2-K297C mutant; type: biochemical; details: 2 mM reducing agent, inside-out patch
T2 construct: expressed in transfected cells; host or cells: HEK-293
T2 sequence (F6V9U5 1-502 K297C): T1 sequence (F6V9U5 1-502) with K297C
Protocol: Figure 6 Scanning of potential sites of interaction of TASK-2 with PI(4,5)P2 by cysteine mutagenesis of intracellular basic residues. (A) Schematic representation of TASK-2 topology showing the sequences of segments of the protein predicted to be intracellular or intracellular-facing. Basic residues are highlighted in red. (B) Recording from an excised inside-out patch of membrane taken from a HEK-293 cell over-expressing TASK-2. The patch was held at −60 mV in the presence of 1 mM ATP. At the intervals indicated by the boxes the intracellular aspect of the membrane was exposed to 300 μM Neomycin and then to 100 μM TPeA. At the end of the TPeA period the patch was additionally exposed to 1 mM MTSET as shown by the black box. (C and D) experiments as in (B), but with inside-out membrane patches obtained from cells expressing the mutants TASK-2-H327C and TASK-2-K297C respectively. In D the reducing agent DTT was also added at 2 mM. (E) Summary of experiments comparing the current before and after treatment with MTSET.
as §1, with “In experiments with the voltage-sensitive phosphatase TASK-2 or its mutants were co-electroporated with a pCR3.1-DrVSP-IRES-CD8 vector.” left out
Recordings in the inside-out isolated patch configuration were performed in the gap-free mode at −60 mV. […] Traces shown are prints from crude Clampfit screen shots and quantification was done using the average currents were calculated at intervals using Clampfit after baseline adjustment.

[6] = tested on: TASK-3; test: Whole-cell current in TASK-3-expressing cells; type: cell-based; details: 100 nM 1,2-dioctanoyl-sn-glycerol, pulses to 0 mV from -75 mV
Protocol: (§2) Figure 3 Gq protein coupled receptor inhibition of TASK-2 and minor effect of diacylglycerol. (A) Effect of activation of the angiotensin II receptor AT1 on TASK-2-mediated currents. HEK-293 cells were co-transfected with AT1 and TASK-2, or the TASK-2-K257A-K258A mutant. Current was monitored by brief pulses to 0 mV from a holding potential of −75 mV. Angiotensin II at a concentration of 1 μM was added during the indicated time. Results are means ± SEM of 6 experiments for TASK-2 and 4 experiments for TASK-2-K257A-K258A. (B) Effect of a diacylglycerol analogue assayed on TASK-2- and TASK-3-expressing cells. Current was monitored by brief pulses to 0 mV from a holding potential of −75 mV. The box labelled DAG indicates the addition of diacylglycerol short-chain analogue 1,2-dioctanoyl-sn-glycerol at 100 nM. Results are means ± SEM of 5 experiments for TASK-2 and 8 experiments for TASK-3.
(§3) Transiently transfected HEK-293 cells in 35 mm Petri dishes were transferred to the stage of an inverted microscope for study. […] All our whole-cell experiments keep both intra- and extracellular chloride at 10 mM and although currents were measured at several potentials, data mostly reported are those obtained at 0 mV. […]

[7] = tested on: TASK-2 expressed with angiotensin II AT1 receptors; test: Whole-cell current in HEK-293 cells co-transfected with AT1 and TASK-2; type: cell-based, Mus musculus; details: 1 μM, pulses to 0 mV from -75 mV
Protocol: Transiently transfected HEK-293 cells in 35 mm Petri dishes were transferred to the stage of an inverted microscope for study. There they were continuously superfused with a bathing solution containing (in mM): 67.5 Na2SO4, 4 KCl, 1 K gluconate, 2 CaCl2, 1 MgCl2, 105 sucrose, and 10 Hepes/Tris (pH 7.5) (standard solution). […] All our whole-cell experiments keep both intra- and extracellular chloride at 10 mM and although currents were measured at several potentials, data mostly reported are those obtained at 0 mV. […]

[8] = tested on: TASK-2-K257A-K258A; test: Whole-cell current in HEK-293 cells co-transfected with AT1 and TASK-2-K257A-K258A; type: cell-based, Mus musculus; details: 1 μM, pulses to 0 mV from -75 mV, Gβγ-insensitive mutant
Protocol: as §2
Mus musculus TASK-2 (GenBank accession No. AF319542) plasmid was that obtained from mouse kidney. The cDNAs was subcloned into the pCR3.1 vector. […]
as §3

## CCCCCCCC(=O)OC[C@H](COP(=O)(O)O[C@H]1[C@H](O)[C@@H](OP(=O)(O)O)[C@H](OP(=O)(O)O)[C@@H](OP(=O)(O)O)[C@H]1O)OC(=O)CCCCCCC [PI(3,4,5)P3, phosphatidylinositol 3,4,5-trisphosphate diC8]
[1]
  Stimulating effect on TASK-2-mediated currents after run-down: Largest effect; also recorded: most potent effect
[1]; inside-out patch, -60 mV
  Maximal fold effect on TASK-2 current (normalised to current in absence of PIP): 11.6 ± 1.6 fold
  EC50: 29.8 ± 10.2 µM

## Nc1ncnc2c1ncn2[C@@H]1O[C@H](CO[P@](=O)(O)O[P@](=O)(O)O[P@@](=O)(O)S)[C@@H](O)[C@H]1O [ATP-γ-S, adenosine-5′-(γ-thio)-triphosphate]
[2]; whole-cell, pipette solution with non-hydrolysable analogue, 0 mV
  Ability to support TASK-2-mediated current in place of ATP: unable to support the TASK-2-mediated current

## CCCCCCCC(=O)OC[C@H](COP(=O)(O)O[C@H]1[C@H](O)[C@@H](O)[C@H](OP(=O)(O)O)[C@@H](OP(=O)(O)O)[C@H]1O)OC(=O)CCCCCCC [PI(3,4)P2, phosphatidylinositol 3,4-bisphosphate diC8]
[1]
  Effect of readmitted ATP relative to the maximal effect elicited by the PIP: 1.4 fold
  Stimulating effect on TASK-2-mediated currents after run-down: Robust, but intermediate effects
[1]; inside-out patch, -60 mV
  Maximal fold effect on TASK-2 current (normalised to current in absence of PIP): 4.3 ± 0.4 fold
  EC50: 48.4 ± 4.6 µM
[1]; inside-out patch
  Hill coefficient nH of dose response curve: 2

## neomycin
[3]; inside-out patch, -60 mV, 1 mM intracellular ATP, neomycin 5 to 500 µM, mean ± SEM, n=4, read-out: IC50 for neomycin inhibition of TASK-2-R438C current
  IC50: 8.9 ± 1.5 µM
[3]; mutation R438C, IC50 compared to WT TASK-2
  Neomycin inhibition: ✓
[1]; 300 μM, -60 mV, 1 mM intracellular ATP
  Inhibition of TASK-2 activity in excised inside-out patches: strongly inhibited
[1]; WT TASK-2, inside-out patch, -60 mV, 1 mM intracellular ATP, neomycin 5 to 500 μM intracellular, mean ± SEM, n = 4, read-out: IC50 for neomycin inhibition of TASK-2 current
  IC50: ~20 µM
[1]; WT TASK-2, inside-out patch, graded intracellular neomycin, mean ± SEM, four experiments, unit inferred, read-out: IC50 for neomycin inhibition of TASK-2 current
  IC50: 23.4 ± 2.7 µM
[1]
  Inhibition of TASK-2 activity by polycation PI scavengers: inhibit TASK-2 activity
[4]
  IC50: 110 µM
[2]; whole-cell, 100 μM in pipette, 0 mV
  Inhibition of TASK-2 activity by intracellular neomycin: intermediate effect
[2]; whole-cell, 200 μM in pipette, 0 mV
  Inhibition of TASK-2 activity by intracellular neomycin: near maximum effect

## O[C@@H](CS)[C@@H](O)CS (racemic) [DTT, dithiothreitol]
[1]; 2 mM reducing agent, inside-out patch, Fig. S4
  Reversal of MTSET inhibition of WT TASK-2: reversibility of the effect
[5]
  Reversal of the MTSET effect on TASK-2-K297C: reversed, at least partially

## CCCCCCCC(=O)OC[C@H](COP(=O)(O)O[C@H]1[C@H](O)[C@@H](O)[C@H](OP(=O)(O)O)[C@@H](O)[C@H]1O)OC(=O)CCCCCCC [PI(4)P, phosphatidylinositol 4-monophosphate diC8]
[1]
  Effect of readmitted ATP relative to the maximal effect elicited by the PIP: 5.6 fold
  Stimulating effect on TASK-2-mediated currents after run-down: quite small; also recorded: rather weak
[1]; inside-out patch, -60 mV
  Maximal fold effect on TASK-2 current (normalised to current in absence of PIP): 1.4 ± 0.4 fold
  EC50: 50.6 ± 1.3 µM
[1]; inside-out patch
  Hill coefficient nH of dose response curve: 2

## CCCCC[N+](CCCCC)(CCCCC)CCCCC [TPeA, tetrapentyl ammonium]
[1]
  IC50: ~2 µM

## CCCCCCCC(=O)OC[C@H](CO)OC(=O)CCCCCCC [DAG, 1,2-dioctanoyl-sn-glycerol]
[6]
  Effect on TASK-3 current: strong inhibition
[2]; 100 nM 1,2-dioctanoyl-sn-glycerol, pulses to 0 mV from -75 mV
  Effect on TASK-2 current: only a minor effect

## angiotensin II (DRVYIHPF; Angiotensin-2; UniProt P01019 25-32, looked up) [agonist of the Gq-coupled angiotensin II AT1 receptor]
[7]
  Effect on TASK-2-mediated current via AT1 receptor: markedly inhibited
[8]
  Effect on TASK-2-K257A-K258A current via AT1, compared with TASK-2: not significantly different

## poly-lysine
[1]
  Inhibition of TASK-2 activity by polycation PI scavengers: inhibit TASK-2 activity
